# US20230069963A1, “PYRAZOLO[1,5-A]PYRIMIDINE MACROCYCLIC COMPOUND” (priority 2018, published 2023)
# Where a name gives a salt, the structure may show the parent alone. Read-outs that look alike come from different tables or passages of the source.
# What was measured:
# [1] = amide bond, HATU, DMF
# [2] = tested on: F protein D486N mutant strain of RSV A2 strain; assay type: cell-based, respiratory syncytial virus (RSV); settings: Hep2 cells, incubated for 4 days, CPE detected with XTT assay (absorbance 450 nm); read-out: EC50 (nmol/L) against F protein D486N mutant strain of RSV A2 strain
# RSV ATCC VR-1540 (A2) = test: microbe, parasite or virus in culture; assay type: cell-based; settings: human respiratory syncytial virus, HEp-2, 96 h; Hep2 cells, incubated for 4 days, CPE detected with XTT assay (absorbance 450 nm); read-out: EC50 (nmol/L) against RSV A2 strain
# D486N mutant strain = settings: D486N mutant vs wild strain; cited from earlier work
Structure (SMILES),EC50 [2] [nmol/L],EC50 (RSV ATCC VR-1540 (A2)) [nmol/L],also measured
CN1CCCCS(=O)(=O)NC(C)(c2ccccc2)C(=O)N2CCCC[C@H]2c2cc3nc(Cl)cc1n3n2 (stereo partly drawn),–,–,"ring closure, yield of all isomers ([1]; from CN(CCCCS(=O)(=O)NC(C)(C(=O)O)c1ccccc1)c1cc(Cl)nc2cc([C@@H]3CCCCN3)nn12, 10.2 mM, 70.0 °C, 2.5 h): 80.4%"
CN1CCNC(=O)COc2ccc(F)cc2C(=O)N2CCCC[C@H]2c2cc3nc(Cl)cc1n3n2,–,–,"ring closure, yield of all isomers ([1]; from CN(CCNC(=O)COc1ccc(F)cc1C(=O)O)c1cc(Cl)nc2cc([C@@H]3CCCCN3)nn12, 10.0 mM, 25.0 °C, 15.0 h): 64.8%"
"[2H]C([2H])([2H])c1ccc2c(c1)C(=O)N1CCCC[C@H]1c1cc3nc(C4CC4)cc(n3n1)N(C)CCNC(=O)CO2 [Example 100, (18aS)-13-cyclopropyl-11-methyl-2-trideuteriomethyl-8,9,10,11,19,20,21,22-octahydro-18aH,24H-18,15-(metheno)pyrido[2,1-l]pyrimido[6,1-h][1,4,7,9,10,13]benzoxapentaazacyclohexadecine-7,24(6H)-dione]",0.678,0.328,–
"[2H]C([2H])([2H])N1CCNC(=O)COc2ccc(Cl)cc2C(=O)N2CCCCC2c2cc3nc(C4CC(O)C4)cc1n3n2 [Example 115, (18aS)-2-chloro-13-(trans-3-hydroxycyclobutyl)-11-trideuteriomethyl-8,9,10,11,19,20,21,22-octahydro-18aH,24H-18,15-(metheno)pyrido[2,1-l]pyrimido[6,1-h][1,4,7,9,10,13]benzoxapentaazacyclohexadecine-7,24(6H)-dione]",0.777,0.344,–
"Cc1ccc2c(c1)C(=O)N1CCCCC1c1cc3nc(C4CC(O)C4)cc(n3n1)N(C)CCNC(=O)CO2 [Example 117, (18aS)-13-(trans-3-hydroxycyclobutyl)-2,11-dimethyl-8,9,10,11,19,20,21,22-octahydro-18aH,24H-18,15-(metheno)pyrido[2,1-l]pyrimido[6,1-h][1,4,7,9,10,13]benzoxapentaazacyclohexadecine-7,24(6H)-dione]",0.742,0.773,–
"[2H]C([2H])([2H])c1ccc2c(c1)C(=O)N1CCCCC1c1cc3nc(C4CC(O)C4)cc(n3n1)N(C([2H])([2H])[2H])CCNC(=O)CO2 [Example 120, (18aS)-13-(trans-3-hydroxycyclobutyl)-2,1I-bis[trideuteriomethyl]-8,9,10,11,19,20,21,22-octahydro-18aH,24H-18,15-(metheno)pyrido[2,1-l]pyrimido[6,1-h][1,4,7,9,10,13]benzoxapentaazacyclohexadecine-7,24(6H)-dione]",0.639,0.45,–
"Cc1ccc2c(c1)C(=O)N1CCCCC1c1cc3nc(N4CCC(N)C4)cc(n3n1)N(C)CCCCO2 [Example 244, (23aS)-18-[(3S)-3-aminopyrrolidin-1-yl]-8,16-dimethyl-1,3,4,13,14,15,16,23a-octahydro-2H, 6H,12H-23,20-(metheno)pyrido[2,1-k]pyrimido[6,1-g][1,6,8,9,12]benzoxatetraazacyclopentadecin-6-one hydrochloride]",7.34,4.01,–
"CN1CCCS(=O)(=O)Nc2ccc(Cl)cc2C(=O)N2CCCCC2c2cc3nc(N4CCC(N)C4)cc1n3n2 [Example 312, (23aS)-18-[(3S)-3-aminopyrrolidin-1-yl]-8-chloro-16-methyl-1,3,4,13,14,15,16,23a-octahydro-2H,6H-23,20-(metheno)-12h-pyrido[2,1-k]pyrimido[6,1-g][2,1,6,8,9,12]benzothiapentaazacyclopentadecine-6,12,12(11H)-trione]",31.8,4.05,–
Cc1cn2nc([C@@H]3CCCCN3C(=O)c3cc(Cl)ccc3NS(C)(=O)=O)cc2nc1N1CC[C@H](N)C1 [GS-5806],–,–,reduction of activity against the D486N mutant strain compared to the activity against the wild strain (D486N mutant strain): approximately 1000 times
